Data as given in PubChem BioAssay AID248 (DTP/NCI, 2004).
Inconclusive results and toxic doses are left out. Rule as the data show it: active = T/C of 150% or more; inactive = T/C below 125%.

System: L1210 leukemia ip in BDF1 mice, survival T/C
Test: NCI In Vivo Anticancer Drug Screen. Data for tumor model L1210 Leukemia (intraperitoneal) in B6D2F1 (BDF1) mice
Conditions: endpoint: mean survival time, higher = longer survival
Method in brief: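 Survival endpoint. Drug-treated group vs vehicle group, expressed as T divided by C. Tumor passaged by transplantation.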

[1] = dose: 200.0 mg/kg/injection, schedule: Q01DX001 (ip), vehicle: saline
[2] = dose: 50.0 mg/kg/injection, schedule: Q01DX009 (ip), vehicle: saline
[3] = dose: 100.0 mg/kg/injection, schedule: Q01DX001 (ip), vehicle: saline
[4] = dose: 100.0 mg/kg/injection, schedule: Q01DX009 (ip), vehicle: saline
[5] = dose: 100.0 mg/kg/injection, schedule: Q04DX003 (ip), vehicle: saline
[6] = dose: 200.0 mg/kg/injection, schedule: Q04DX003 (ip), vehicle: saline
[7] = dose: 400.0 mg/kg/injection, schedule: Q01DX001 (ip), vehicle: saline
[8] = dose: 50.0 mg/kg/injection, schedule: Q01DX001 (ip), vehicle: carboxymethylcellulose (CMC)
[9] = dose: 100.0 mg/kg/injection, schedule: Q01DX001 (ip), vehicle: carboxymethylcellulose (CMC)
[10] = dose: 200.0 mg/kg/injection, schedule: Q01DX001 (ip), vehicle: carboxymethylcellulose (CMC)
[11] = dose: 400.0 mg/kg/injection, schedule: Q01DX001 (ip), vehicle: carboxymethylcellulose (CMC)
[12] = dose: 200.0 mg/kg/injection, schedule: Q01DX009 (ip), vehicle: saline
[13] = dose: 400.0 mg/kg/injection, schedule: Q01DX009 (ip), vehicle: saline
[14] = dose: 400.0 mg/kg/injection, schedule: Q04DX003 (ip), vehicle: saline
[15] = dose: 100.0 mg/kg/injection, schedule: Q04DX002 (ip), vehicle: Klucel (hydroxypropylcellulose) (HPC)
[16] = dose: 200.0 mg/kg/injection, schedule: Q04DX002 (ip), vehicle: Klucel (hydroxypropylcellulose) (HPC)
[17] = dose: 400.0 mg/kg/injection, schedule: Q04DX002 (ip), vehicle: Klucel (hydroxypropylcellulose) (HPC)
[18] = dose: 50.0 mg/kg/injection, schedule: Q01DX009 (ip), vehicle: saline with Tween-80
[19] = dose: 100.0 mg/kg/injection, schedule: Q01DX009 (ip), vehicle: Klucel (hydroxypropylcellulose) (HPC)
[20] = dose: 200.0 mg/kg/injection, schedule: Q01DX009 (ip), vehicle: Klucel (hydroxypropylcellulose) (HPC)
[21] = dose: 400.0 mg/kg/injection, schedule: Q01DX009 (ip), vehicle: Klucel (hydroxypropylcellulose) (HPC)
[22] = dose: 100.0 mg/kg/injection, schedule: Q01DX009 (ip), vehicle: saline with Tween-80
[23] = dose: 200.0 mg/kg/injection, schedule: Q01DX009 (ip), vehicle: saline with Tween-80
[24] = dose: 400.0 mg/kg/injection, schedule: Q01DX009 (ip), vehicle: saline with Tween-80

Measured: T/C

COc1ccc2nc3cc(Cl)ccc3c(NCCCCCN3CCCCC3)c2c1
inactive: dose: 5.0 mg/kg/injection, schedule: Q01DX001 (ip), vehicle: saline 97 % of control | dose: 10.0 mg/kg/injection, schedule: Q01DX001 (ip), vehicle: saline 97 % of control | dose: 20.0 mg/kg/injection, schedule: Q01DX001 (ip), vehicle: saline 101 % of control | dose: 40.0 mg/kg/injection, schedule: Q01DX001 (ip), vehicle: saline 106 % of control | dose: 80.0 mg/kg/injection, schedule: Q01DX001 (ip), vehicle: saline 100 % of control | [1] 94 % of control

O=S(=O)(CC12CC1(O)C1CCC2C1)c1ccccc1 (stereo unspecified)
inactive: dose: 25.0 mg/kg/injection, schedule: Q01DX009 (ip), vehicle: saline 104 % of control | [2] 104 % of control | [3] 108 % of control | [4] 93 % of control | [5] 103 % of control | [1] 103 % of control | [6] 100 % of control | [7] 107 % of control

Cc1ccc(Br)c([N+](=O)[O-])c1
inactive: dose: 22.2 mg/kg/injection, schedule: Q01DX001 (ip), vehicle: carboxymethylcellulose (CMC) 93 % of control | dose: 33.35 mg/kg/injection, schedule: Q01DX001 (ip), vehicle: carboxymethylcellulose (CMC) 93 % of control | [8] 93 % of control | dose: 75.0 mg/kg/injection, schedule: Q01DX001 (ip), vehicle: carboxymethylcellulose (CMC) 110 % of control | [9] 109 % of control | [10] 115 % of control | [11] 107 % of control

CCOC(=O)C1CC(=O)c2c1ccc1ccccc21 (stereo unspecified)
inactive: dose: 75.0 mg/kg/injection, schedule: Q01DX001 (ip), vehicle: other 105 % of control | dose: 150.0 mg/kg/injection, schedule: Q01DX001 (ip), vehicle: other 97 % of control | dose: 300.0 mg/kg/injection, schedule: Q01DX001 (ip), vehicle: other 96 % of control

CC(C)=CCO
inactive: [4] 96 % of control | [12] 93 % of control | [13] 88 % of control

O=C(COc1ccc(Cl)c(Cl)c1)Nc1ccc[n+](Cc2ccc(Cl)c(S(=O)(=O)F)c2)c1
inactive: [5] 106 % of control | [6] 94 % of control | [14] 105 % of control

O=C(Oc1cc(Cl)c(S(=O)(=O)F)cc1Cl)c1ccc([N+](=O)[O-])cc1
inactive: [15] 99 % of control | [16] 99 % of control | [17] 92 % of control

O=C1c2cccc(S(=O)(=O)O)c2C(=O)c2c1cccc2S(=O)(=O)O
inactive: [8] 109 % of control | [9] 111 % of control | [10] 109 % of control | [11] 103 % of control

CC(=O)Oc1c(N)c(C)cc(C)c1F
inactive: dose: 6.0 mg/kg/injection, schedule: Q01DX001 (ip), vehicle: Klucel (hydroxypropylcellulose) (HPC) 92 % of control | dose: 12.0 mg/kg/injection, schedule: Q01DX001 (ip), vehicle: Klucel (hydroxypropylcellulose) (HPC) 92 % of control | dose: 25.0 mg/kg/injection, schedule: Q01DX001 (ip), vehicle: Klucel (hydroxypropylcellulose) (HPC) 110 % of control

O=C1OC2(c3ccc(O)cc3Oc3cc(O)ccc32)C2C3CCC(O3)C12 (stereo unspecified)
inactive: [15] 100 % of control | [16] 118 % of control

Cn1nc(C(=O)O)c(=O)[nH]c1=O
inactive: dose: 100.0 mg/kg/injection, schedule: Q01DX Z (ip), vehicle: methylcellulose (MC) 97 % of control

Cc1c2cnccc2c(C)c2c1c1ccccc1n2CCCl
inactive: dose: 31.25 mg/kg/injection, schedule: Q01DX009 (ip), vehicle: saline with Tween-80 106 % of control | dose: 37.5 mg/kg/injection, schedule: Q04DX003 (ip), vehicle: saline 93 % of control | dose: 62.5 mg/kg/injection, schedule: Q01DX009 (ip), vehicle: saline with Tween-80 109 % of control | dose: 75.0 mg/kg/injection, schedule: Q04DX003 (ip), vehicle: saline 97 % of control | dose: 150.0 mg/kg/injection, schedule: Q04DX003 (ip), vehicle: saline 98 % of control | dose: 300.0 mg/kg/injection, schedule: Q04DX003 (ip), vehicle: saline 100 % of control

COc1cccc2c1CCC/C2=N\N(C)C
inactive: dose: 100.0 mg/kg/injection, schedule: Q04DX003 (sc), vehicle: olive oil, sesame oil, peanut oil 107 % of control | dose: 200.0 mg/kg/injection, schedule: Q04DX003 (sc), vehicle: olive oil, sesame oil, peanut oil 105 % of control | dose: 400.0 mg/kg/injection, schedule: Q04DX003 (sc), vehicle: olive oil, sesame oil, peanut oil 109 % of control

CNC(=O)NC1C(O)COC(OC)C1O (stereo unspecified)
inactive: dose: 6.25 mg/kg/injection, schedule: Q01DX009 (ip), vehicle: saline with Tween-80 101 % of control | dose: 12.5 mg/kg/injection, schedule: Q01DX009 (ip), vehicle: saline with Tween-80 101 % of control | dose: 25.0 mg/kg/injection, schedule: Q01DX009 (ip), vehicle: saline with Tween-80 105 % of control | [18] 100 % of control

CC(C)OC(=O)N1CCN(C(=O)OC(C)C)CC1
inactive: [19] 97 % of control | [15] 93 % of control | [20] 94 % of control | [16] 93 % of control | [21] 102 % of control | [17] 117 % of control

COc1ccc(C)cc1NC(=O)OCCOc1ccc(NC(C)=O)cc1
inactive: [18] 98 % of control | [22] 95 % of control | [23] 95 % of control

N#CCCCSC(=N)N
inactive: [3] 106 % of control | [1] 104 % of control

COC(=O)c1[nH]cnc1N
inactive: [8] 97 % of control | [9] 105 % of control | [10] 97 % of control | [11] 94 % of control

CCCCCCn1c2ccccc2c2cc3cnccc3c(C)c21
inactive: dose: 37.5 mg/kg/injection, schedule: Q04DX003 (ip), vehicle: Klucel (hydroxypropylcellulose) (HPC) 97 % of control | dose: 75.0 mg/kg/injection, schedule: Q04DX003 (ip), vehicle: Klucel (hydroxypropylcellulose) (HPC) 97 % of control | dose: 150.0 mg/kg/injection, schedule: Q04DX003 (ip), vehicle: Klucel (hydroxypropylcellulose) (HPC) 102 % of control | dose: 300.0 mg/kg/injection, schedule: Q04DX003 (ip), vehicle: Klucel (hydroxypropylcellulose) (HPC) 104 % of control

COc1ccc(NC(=O)Nc2ccc(S(N)(=O)=O)cc2)c(OC)c1
inactive: [19] 96 % of control | [20] 94 % of control | [21] 88 % of control

O=[N+]([O-])c1ccc(NCCNC(c2ccccc2)(c2ccccc2)c2ccccc2)c([N+](=O)[O-])c1
inactive: [2] 96 % of control | [3] 87 % of control | [4] 91 % of control | [1] 90 % of control | [12] 93 % of control

CCCCCCC(=O)CCCC
inactive: [22] 102 % of control | [5] 98 % of control | [23] 111 % of control | [6] 88 % of control | [24] 98 % of control | [14] 94 % of control

N#CC1c2ccccc2C=CN1C(=O)CCBr (stereo unspecified)
inactive: [22] 112 % of control | [23] 102 % of control | [24] 96 % of control

O=C1OC(=O)C2C1C1c3ccccc3C13c1ccccc1C23 (stereo unspecified)
inactive: [3] 92 % of control | [4] 110 % of control | [1] 94 % of control | [12] 100 % of control | [7] 97 % of control | [13] 89 % of control

COc1ccc(COC(=O)Nc2cc(C(F)(F)F)ccc2Cl)cc1
inactive: [4] 100 % of control | [12] 107 % of control | [13] 105 % of control
